Calls of active or inactive are those of the source. No cut-off for these calls is given here.
Columns and labels:
[1] = Drug retention assessed as membrane retention by PAMPA method; assay type: physicochemical
[2] = tested on: Human immunodeficiency virus 1; assay type: functional, organism-based; settings: Human immunodeficiency virus 1, NL4-3, MT4
[3] = tested on: Human immunodeficiency virus 1; test: Antiviral activity against HIV1 Clade F (BZ162) infected in human PBMC assessed as reduction in p24 antigen production; assay type: functional, organism-based; settings: Human immunodeficiency virus 1, Clade F (BZ162)
[4] = tested on: Human immunodeficiency virus 1; test: Antiviral activity against HIV1 Clade G (HH8793) infected in human PBMC assessed as reduction in p24 antigen production; assay type: functional, organism-based; settings: Human immunodeficiency virus 1, Clade G (HH8793)
[5] = tested on: Human immunodeficiency virus 2; test: Antiviral activity against HIV2 ROD infected in human PBMC cells assessed as reduction in p24 antigen production; assay type: functional, organism-based; settings: ISOLATE ROD
[6] = molecular target: Human immunodeficiency virus type 1 reverse transcriptase (Human immunodeficiency virus 1, UniProt Q72547, L100I)
Description: Inhibition of wild type HIV1 reverse transcriptase L100I mutant assessed as reduction in enzyme activity

[7] = molecular target: Human immunodeficiency virus type 1 reverse transcriptase (Human immunodeficiency virus 1, UniProt Q72547, K103N)
Description: Inhibition of wild type HIV1 reverse transcriptase K103N mutant assessed as reduction in enzyme activity

[8] = tested on: Human immunodeficiency virus 1; test: Antiviral activity against HIV1 Clade D (UG270) infected in human PBMC assessed as reduction in p24 antigen production; assay type: functional, organism-based; settings: Human immunodeficiency virus 1, Clade D (UG270)
[9] = molecular target: Human immunodeficiency virus type 1 reverse transcriptase (Human immunodeficiency virus 1, UniProt Q72547, V106A); test: Inhibition of […] HIV1 reverse transcriptase V106A mutant assessed as reduction in enzyme activity
[10] = Permeability by PAMPA method; assay type: ADME
[11] = tested on: Human immunodeficiency virus 1; test: Antiviral activity against HIV1 Clade A/E (ID12) infected in human PBMC assessed as reduction in p24 antigen production; assay type: functional, organism-based; settings: Human immunodeficiency virus 1, Clade A/E (ID12)
[12] = tested on: Human immunodeficiency virus 1; test: Antiviral activity against HIV1 NL4-3 infected in human MT4 cells assessed as reduction in virus-induced cell death by MTT assay; assay type: functional, organism-based; settings: Human immunodeficiency virus 1, NL4-3, MT4
[13] = tested on: Human immunodeficiency virus 1; assay type: functional, organism-based; settings: Human immunodeficiency virus 1, NL4-3, MT4; remark: listed apart in the source
[14] = tested on: Human immunodeficiency virus 1; test: Antiviral activity against HIV1 Clade B (BaL) infected in human PBMC assessed as reduction in p24 antigen production; assay type: functional, organism-based; settings: Human immunodeficiency virus 1, Clade B (BaL)
[15] = tested on: Human immunodeficiency virus 1; test: Antiviral activity against HIV1 Clade C (DJ259) infected in human PBMC assessed as reduction in p24 antigen production; assay type: functional, organism-based; settings: Human immunodeficiency virus 1, Clade C (DJ259)
[16] = molecular target: T1, Human immunodeficiency virus type 1 reverse transcriptase (Human immunodeficiency virus 1, UniProt Q72547)
[17] = molecular target: T1, Human immunodeficiency virus type 1 reverse transcriptase; remark: listed apart in the source
Description: Inhibition of wild type HIV1 reverse transcriptase assessed as reduction in enzyme activity

[18] = Stability in human plasma assessed as remaining unmodified parent compound level after 24 hrs; assay type: ADME, cell-free; settings: read-out: Stability
Plasma = test: Stability in human plasma assessed as compound hydrolysis after 24 hrs; assay type: ADME, cell-free
[19] = tested on: Human immunodeficiency virus 1; assay type: functional, organism-based; settings: Human immunodeficiency virus 1, NL4-3, MT4; remark: listed apart in the source
[20] = tested on: Human immunodeficiency virus 1; test: Antiviral activity against HIV1 Clade A (UG273) infected in human PBMC assessed as reduction in p24 antigen production; assay type: functional, organism-based; settings: Human immunodeficiency virus 1, Clade A (UG273)

Cc1cc(C)cc(S(=O)(=O)c2c(C(=O)N[C@H](C)c3ccncc3)[nH]c3ccc(Cl)cc23)c1
Drug uptake [1]: 0% | EC50 [2]: 150 nM | EC50 [3]: 1.6 nM | EC50 [4]: 1.7 nM | Activity [5]: inactive | IC50 [6]: 3 nM | IC50 [7]: 50 nM | EC50 [8]: 1.8 nM | IC50 [9]: 26 nM | Papp [10]: 12.4 ×10⁻⁶ cm/s | EC50 [11]: 1.2 nM | EC50 [12]: 0.2 nM | EC50 [13]: 933 nM | EC50 [14]: 2.1 nM | EC50 [15]: 0.7 nM | IC50 [16]: 2230 nM | IC50 [17]: 18 nM | remaining at 24 h [18]: 99% | Stability (Plasma): Stable | EC50 [19]: 2.1 nM | EC50 [20]: 3.4 nM
